These results are taken from patent US20210137898A1, “METHODS TO TREAT GLIOMAS USING A STAT3 INHIBITOR” (Mayo Foundation for Medical Education and Research, priority 2017, published 2021).

The term IC50 denotes the concentration needed to halve the response being measured.

For data set [1], the system named is H3K27me3 in H3K27M tumor cells (Peds8). Put plainly: Global H3K27 trimethylation in H3K27M tumor cells after treatment. Particulars: vs no treatment (NT), FIG. 6B-D. The class given is cell-based. The procedure: (§1) The role of STAT3 in midline H3K27M tumors (e.g., diffuse midline H3K27M tumors) has not been studied. To further validate STAT3 signaling as a potential drug target in these patients, it was determined if STAT3 is required for proliferation of H3K27M cells. […] Because of the critical dependence of STAT3 signaling in H3K27M tumor cells, the activity of STAT3 (pSTAT3) would be elevated in patients with DIPG tumors. Using treatment naive surgical samples from DIPG patients, an increase (>10-fold) in pSTAT3 levels was observed as compared to non-neoplastic brain tissues from other surgeries (FIG. 5A). Using large cohorts from published data sets, it was also seen a >2-fold increase in STAT3 mRNA expression (RNA-seq) in DIPG patients compared to normal brainy (FIG. 5B). In addition, pSTAT3 expression levels were increased in H3K27M cell lines compared to WT lines in both pediatric and adult high-grade gliomas (FIG. 6). […] The data presented supports a method of treating glioma with H3K27M mutation by restoration of methylation pattern. In one example, the methylation pattern is restored by a H3K27me3 demethylase inhibitor (e.g., GSK-J4).

Data set [2] has as its system WT SF9427 cell line. In words: Cell viability, STAT3 inhibitors, WT SF9427 cell line. It counts as cell-based. The settings on record: WT SF9427 cells, FIG. 4B/4C. The procedure: (§2) Results are mean±SD of three independent experiments. B and C. H3K27M cells (Peds8 and DIPG8) are selectively sensitive to inhibition by STAT3 inhibitors. […] C.
as §1

In data set [3] the test system is DIPG8 H3K27M cells. In words: Cell viability, STAT3 inhibitors, H3K27M cells DIPG8. The class given is cell-based. The settings on record: FIG. 4B/4C. As for the experimental part:
as §2, §1

Data set [4] concerns Peds8 H3K27M cells. Put plainly: Cell viability, STAT3 inhibitors, H3K27M cells Peds8. It counts as cell-based. As for the experimental part: as §2, §1
Data set [5] relates to H3K27M tumor Peds17. Details: species or system mice. Particulars: mouse, in vivo, po. The procedure:
H3K27M tumor Peds17 treated with STAT3 inhibitor WP1066 (20 mg/kg oral gavage) vs. control (DMSO) for 8 weeks. […] Cohorts of mice (n=10/group), were implanted in the brainstem and BLI was performed weekly using IVIS Lumina imaging system using luciferase transfected tumor cells.
To validate STAT3 as a therapeutic target for H3K27M tumors, the effects on tumor growth with WP1066 were evaluated in intracranial orthotopic xenografts (FIG. 7).

With `CCOC(=O)CCNc1cc(N2CCc3ccccc3CC2)nc(-c2ccccn2)n1` [GSKJ4], the H3K27me3 level result in data set [1] is recorded as “increases H3K27me3”.

Consider `C[C@H](NC(=O)/C(C#N)=C/c1cccc(Br)n1)c1ccccc1` [WP1066], for which the H3K27me3 level result in data set [1] is given as “increases H3K27me3”. In addition, the IC50 in data set [2] amounted to 62300 nM; in data set [3] it was 2500 nM; in data set [4] (Peds8 (H3K27M) cells, FIG. 4B/4C), 1900 nM. Also, the “cell viability of two H3K27M DIPG cell lines” value in data set [4] (two H3K27M DIPG cell lines, much less in WT SF9427 cell line) was “inhibited cell viability”. Besides, the “toxicities in the mice” value in data set [5] is recorded as “no toxicities were noted”.
